This is an account of results in patent US20190119284A1, “ErbB Inhibitors and Uses Thereof” (The Regents of the University of California, priority 2016, published 2019).

One assay deals with AKT1 (Homo sapiens, UniProt P31749). Nature of the assay: Nanosyn in vitro kinase profiling: AKT1. The assay is classed as biochemical. Here is the method:
This was confirmed by in vitro profiling against a panel of kinases, with compound 2 only showing potent inhibition of EGFR and Ab1 (Table 2).
In vitro Kinome Screen. In vitro profiling of compound 2 at 100 nM was conducted by Nanosyn.

The subject of another assay is CHL-1 cells. Nature of the assay: growth of CHL-1 cells over 96 h (IncuCyte Zoom confluence). In kind it is cell-based. The following applies: CHL-1, 96 h, compared with lapatinib.
For assay [1], the target named is T1, 2YF-L755S/3wt + NRG Ba/F3 cells (Homo sapiens, UniProt P04626, L755S/Y1005F/Y1023F/Y1112F/Y1127F/Y1139F/Y1196F/Y1221F/Y1222F/Y1248F, cells depend on it).
T1 construct: reported HER2 oncogenic mutants in the HER2YF construct
The assay is described as follows: Ba/F3 proliferation assay, 2YF-L755S/3wt + NRG. In kind it is cell-based. The conditions noted are these: Table 4; ± S.D., n = 2; read-out: IC50, 2YF-L755S/3wt + NRG. Here is the method:
For the 2YF/3wt cells, the parental cells were first transduced with HER3 according to the protocol above and were then spun down at 500×g for 5 min and re-suspended in media supplemented with 10 ng/mL IL-3 and 3 μg/mL puromycin (Invitrogen). Cells were maintained in these conditions for seven days, passaging as required. After seven days the cells were spun down, washed with fresh media, and then used for a subsequent round of transduction according to the protocol above with HER2YF virus. […] The cells were maintained in these conditions for seven days, passaging as required. After seven days the cells were spun down, washed with fresh media, and then suspended in media supplemented with 10 ng/mL of NRG. Cells were maintained in these conditions for seven days to select for a NRG dependent population of 2YF/3wt Ba/F3 cells that were then maintained as described above. The same protocol was used for the 2YF-L755S/3wt, 2YF-YVMA/3wt, and 2YF-VC/3wt cell lines using the indicated constructs.
Proliferation Assays. […] The following day media was changed to fresh media that contained either DMSO or the indicated concentration of drug plus NRG (50 ng/mL final concentration) as indicated. […] For all normalized assays, proliferation was normalized to the DMSO control condition. […]

Another assay addresses MEK2 (Homo sapiens, UniProt P36507). Nature of the assay: Nanosyn in vitro kinase profiling: MEK2. In kind it is biochemical. The conditions noted are these: compound at 1 μM.
In assay [2] the test system is HER2/HER3 signaling in CW-2 cells (HER3 E928G). Nature of the assay: HER2/HER3 signaling in CW-2 cells +/- NRG, 1 h. In kind it is cell-based. The following applies: CW-2, dose response.
In assay [3] the test system is Ba/F3 cell line panel (HER2YF/HER3). The assay is described as follows: 48 h proliferation of the Ba/F3 cell line panel (CellTiter-Glo). In kind it is cell-based. The conditions noted are these: 48 h proliferation curves. Here is the method: FIGS. 3A-3D. Design and execution of a high-throughput screen identifies a novel HER2/HER3 inhibitor. FIG. 3A: 2YF/3wt cells were incubated in the presence or absence of NRG for 48 h and proliferation was assessed by CellTiter-Glo (mean±SD, n=1). […] FIG. 3C: Structure and proliferation curves for hit compound 1 (also referred herein as compound 185) against the Ba/F3 cell line panel (mean±SD, n=3), FIG. 3D: Structure and proliferation curves for compound 2 (also referred to herein as compound 55A) against the panel of Ba/F3 cell lines (mean±SD, n=3).
FIGS. 4A-4F. Compound 2 is a selective Type I inhibitor for HER2. […] FIG. 4B: Thermal stabilization of the HER3 kinase domain by either compound 2 or ATP as determined by Thermofluor (mean±SD, n=3). FIGS. 4C-4D: The crystal structure of either erlotinib (FIG. 4C) or 2 (FIG. 4D) bound to EGFR V924R. The kinase domain in complex with compound 2 has been stabilized in the active confirmation by drug binding, despite the mutation—as evidenced by the ordered extension of the activation loop and the inward positioning of the α-C helix.
FIGS. 5A-5D. […] FIG. 5A: Chemical structure of compound 3 (also referred to herein as compound 178). FIG. 5B: Proliferation curves for compound 3 against the Ba/F3 cell line panel (mean±SD, n=3). […] FIG. 5D: The same assay in FIG. 2A was performed with compound 3 in SK-BR-3 cells.
FIG. 10. […]

Assay [4] has as its system HER2 mutants biased towards the active conformation (NCI-H1781 cells). The assay is described as follows: signaling in NCI-H1781 cells after 15 min. The assay is classed as cell-based. The following applies: NCI-H1781, dose response.

Sequence of AKT1 (P31749 whole entry): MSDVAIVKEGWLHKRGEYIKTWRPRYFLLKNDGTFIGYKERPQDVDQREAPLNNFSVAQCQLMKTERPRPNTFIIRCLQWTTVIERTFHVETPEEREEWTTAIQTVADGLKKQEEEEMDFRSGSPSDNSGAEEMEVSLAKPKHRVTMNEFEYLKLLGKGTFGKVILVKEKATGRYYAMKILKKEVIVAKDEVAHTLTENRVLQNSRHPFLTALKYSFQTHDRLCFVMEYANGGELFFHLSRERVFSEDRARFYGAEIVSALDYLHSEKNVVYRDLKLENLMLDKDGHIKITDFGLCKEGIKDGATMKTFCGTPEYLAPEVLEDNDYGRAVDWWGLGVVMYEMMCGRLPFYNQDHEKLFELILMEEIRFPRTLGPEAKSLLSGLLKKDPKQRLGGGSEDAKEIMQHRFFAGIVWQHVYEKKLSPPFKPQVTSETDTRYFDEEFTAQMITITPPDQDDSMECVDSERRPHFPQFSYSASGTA
T1 sequence (P04626 whole entry L755S/Y1005F/Y1023F/Y1112F/Y1127F/Y1139F/Y1196F/Y1221F/Y1222F/Y1248F): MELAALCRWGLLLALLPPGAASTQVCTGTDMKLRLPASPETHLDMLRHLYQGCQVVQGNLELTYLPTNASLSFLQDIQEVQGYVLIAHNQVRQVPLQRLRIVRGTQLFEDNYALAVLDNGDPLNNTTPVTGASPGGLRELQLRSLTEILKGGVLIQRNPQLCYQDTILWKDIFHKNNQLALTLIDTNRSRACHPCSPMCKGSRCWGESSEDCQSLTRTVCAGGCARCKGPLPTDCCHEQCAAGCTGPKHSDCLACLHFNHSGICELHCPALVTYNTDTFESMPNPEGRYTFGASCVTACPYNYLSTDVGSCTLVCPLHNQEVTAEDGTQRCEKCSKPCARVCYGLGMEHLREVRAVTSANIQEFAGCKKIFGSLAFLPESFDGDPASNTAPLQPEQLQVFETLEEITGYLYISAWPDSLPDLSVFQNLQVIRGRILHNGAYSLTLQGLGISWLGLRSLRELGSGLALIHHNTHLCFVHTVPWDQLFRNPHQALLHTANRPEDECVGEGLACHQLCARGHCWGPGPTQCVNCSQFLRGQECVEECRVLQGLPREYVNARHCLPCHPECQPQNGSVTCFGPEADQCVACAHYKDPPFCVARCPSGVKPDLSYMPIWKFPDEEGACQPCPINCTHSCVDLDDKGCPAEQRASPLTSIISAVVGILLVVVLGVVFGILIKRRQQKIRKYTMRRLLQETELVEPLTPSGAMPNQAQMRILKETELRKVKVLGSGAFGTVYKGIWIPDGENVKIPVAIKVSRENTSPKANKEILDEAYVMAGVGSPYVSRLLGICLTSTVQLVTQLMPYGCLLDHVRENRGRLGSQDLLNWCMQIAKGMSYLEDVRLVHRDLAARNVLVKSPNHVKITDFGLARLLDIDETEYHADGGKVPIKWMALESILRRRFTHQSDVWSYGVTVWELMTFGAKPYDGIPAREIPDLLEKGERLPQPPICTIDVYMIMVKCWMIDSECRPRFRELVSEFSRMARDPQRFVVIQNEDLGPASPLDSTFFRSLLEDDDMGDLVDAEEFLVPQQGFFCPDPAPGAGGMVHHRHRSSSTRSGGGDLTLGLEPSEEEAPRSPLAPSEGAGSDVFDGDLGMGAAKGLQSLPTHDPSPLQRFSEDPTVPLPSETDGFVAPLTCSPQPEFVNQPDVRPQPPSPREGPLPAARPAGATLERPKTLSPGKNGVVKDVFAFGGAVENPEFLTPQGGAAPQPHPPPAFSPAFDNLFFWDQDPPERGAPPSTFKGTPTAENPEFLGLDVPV
Sequence of MEK2 (P36507 whole entry, species assumed): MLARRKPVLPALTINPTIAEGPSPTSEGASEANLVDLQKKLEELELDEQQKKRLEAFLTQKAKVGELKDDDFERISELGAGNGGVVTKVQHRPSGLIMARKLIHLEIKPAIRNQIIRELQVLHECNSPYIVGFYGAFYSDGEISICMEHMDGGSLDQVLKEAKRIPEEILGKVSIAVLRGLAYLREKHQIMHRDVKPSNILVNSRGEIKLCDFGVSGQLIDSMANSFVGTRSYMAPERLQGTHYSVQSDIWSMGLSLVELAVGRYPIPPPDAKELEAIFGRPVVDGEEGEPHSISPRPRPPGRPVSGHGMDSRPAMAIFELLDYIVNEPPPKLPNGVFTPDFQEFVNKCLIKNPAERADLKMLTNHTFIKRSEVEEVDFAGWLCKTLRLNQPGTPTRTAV

For `COc1ccc(-c2ccco2)cc1Nc1ncnc2[nH]nc(-c3ccco3)c12` [compound 2, 3-(furan-2-yl)-N-(5-(furan-2-yl)-2-methoxyphenyl)-1H-pyrazolo[3,4-d]pyrimidin-4-amine], on AKT1 (compound at 100 nM), the inhibition (usually the drop in the measured response relative to a control, in per cent) at 0.1 µM came out at 14.3%. Besides, on AKT1 (compound at 1 μM), the inhibition at 1 µM was determined as 33%.
As for `COc1ccc(-c2ccoc2)cc1Nc1ncnc2[nH]cc(-c3cc[nH]n3)c12` [compound 3, N-(5-(furan-3-yl)-2-methoxyphenyl)-5-(1H-pyrazol-3-yl)-7H-pyrrolo[2,3-d]pyrimidin-4-amine], in the assay on CHL-1 cells, the “reduction of cell growth (confluence)” value is listed as “more effective at reducing the growth of CHL-1 cells”. Also, the GI50 in assay [1] was found to be 38.2 ± 2.9 nM. Moreover, on MEK2, at 1 µM the inhibition was 70%.
Consider `CS(=O)(=O)CCNCc1ccc(-c2ccc3ncnc(Nc4ccc(OCc5cccc(F)c5)c(Cl)c4)c3c2)o1` [lapatinib], for which the “HER2/HER3 signaling +/- NRG” value in assay [2] is “NRG rescues HER2/HER3 signaling”. For the same compound, the “level of pathway inhibition distinguished by the Ba/F3 panel” value in assay [3] is “specifically inhibit signaling at the HER2/HER3 level”. Also, in assay [4], the “binding to HER2 mutants judged by signaling after short treatment” value is “does not efficiently bind to HER2 mutants biased towards the active conformation”.
